{
  "source": "patent US20090142416A1",
  "about": "“Methods for the treatment of HIV and other viruses” (priority 2003, published 2009)",
  "key": {"[1]": {"test_system": "murine leukemia virus (MULV)", "settings": "for survival rate at 21 days / post-treatment CD4/CD8 ratio: 72 feet; for survival rate at 21 days: 2 hours daily; for survival rate at 21 days / mice that died during the treatment period: 12 mice per group; for post-treatment CD4/CD8 ratio / post-treatment CD4 count (FACS): 2 hours, versus post-treatment control; for post-treatment CD4/CD8 ratio: six days a week, three weeks; for hypocellular medullary sinuses of lymph nodes: H&E histology after three-week treatment; for lymph node architecture: after 21 days of treatment; for spleen size / lymph node size: after three-week treatment; for spleen size: N2 and air versus control and oxygen; for lymph node size: area = length times width of cut node; for post-treatment CD4 count (FACS): orbital blood, 72 feet of seawater, six days a week for three weeks; for physical condition / grooming: versus control and oxygen groups; for mice that died during the treatment period: days 6 and 14; for overall effect relative to control conditions: 72 ft for 2 hours, 6 days per week", "procedure": "FIG. 5A represents the cross section of an actual lymph node removed from a mouse that took part in a study of the present method. […] As a result of the observations on divers in Puerto Rico, it was decided to first test this concept in murine leukemia virus-MULV mice exposed to increased pressures of nitrogen at a depth of 72 feet for 2 hours 6 days per week for 3 weeks. […] The murine model, AKR-J strain of mice which are viremic from birth, were used to test the hypotheses. The animal model was chosen because of its striking similarities to human AIDS. […] The mice were separated at random into four groups of 12 mice in each group. Group 1 was control. Group 2 was exposed to air at sea level pressure. Group 3 was exposed to N2 and Group 4 to O2 under the following conditions. The mice were placed in a small (5.88 cubic feet), temperature controlled hyperbaric chamber and compressed with Air, N2+6.5% O2 or 100% O2. Groups were taken separately to a pressure of 72 feet of seawater. The animals reached maximum treatment pressure in 6-7 minutes and remained at this pressure for 2 hours. They were then returned to normal barometric pressure at a rate of one foot per minute (72 minutes). This process was performed each day for six days a week for three weeks. The control group of animals (Group 1) was exposed to normal surface conditions for the same period of time.\nCytological and histological measurements. Pre- and post-flow cytometry (FACS) analysis was performed on samples of orbital blood from 10 animals in each group labeled with anti-mouse CD4/CD8 fluorescence markers. Animals were anesthetized using methoxyflurane and blood was collected with a heparinized Pasteur pipette. Lymphocytes were stained with anti CD4-PE and anti CD8-FITC (Pharmingen) for 15 minutes. Erythrocytes were hemolyzed in lysis solution (Becton Dickinson) for 10 minutes, washed with PBS/azide solution, centrifuged and the supernatant was discarded. The pellet was fixed with 1% formalin in PBS, and stored at 4° C. until cytometry (Becton Dickinson FACS Scan; San Jose, Calif.). At the end of the three-week treatment period, blood samples were obtained and the mice were sacrificed. The lymph nodes, spleen, thymus, liver and brain tissue were collected immediately placed in 10% formalin. Following fixation and routine paraffin processing, 4 μm sections of lymph nodes were obtained after cutting randomly selected nodes through the center parallel to the long axis of the node. The slides were stained with hematoxylin and eosin (H&E) and reviewed by a pathologist that was blinded to knowledge of animal treatment groups. The presence of secondary follicles and paracortical expansion were quantitated for each animal as a percentage of lymph nodes. As medullary sinuses were not present in every lymph node profile, the presence of medullary sinus hypocellularity was quantitated as a percentage of lymph nodes which contained sinuses. In addition the approximate surface area of the cut node was computed from the product of the length and width in its maximum dimensions. The remaining tissues were examined qualitatively for pathological changes.\nFIG. 6 is bar chart showing the average size of lymph nodes taken from the mice of different groups in the study discussed above. The lymph nodes were taken from the cervical, thoracic, and abdominal regions and fixed in 10% formalin. The nodes were then sectioned through the center of the long axis, and area was computed as the product of length times width."}, "[2]": {"settings": "cited from earlier work"}, "[3]": {"settings": "listed as Mixtures with enriched nitrogen"}},
  "note": "Entries after “also recorded” stand apart in the source; their conditions may differ. Read-outs that look alike come from different tables or passages of the source.",
  "data": [
    {"smiles": "N#N", "note": "[N2, nitrogen]", "values": [
      {"measurement": "survival rate at 21 days", "setting": "[1]", "result": 100, "unit": "%"},
      {"measurement": "post-treatment CD4/CD8 ratio", "setting": "[1]", "result": "significantly higher"},
      {"measurement": "post-treatment CD4/CD8 ratio", "setting": "[1]; [3]", "result": "increased"},
      {"measurement": "hypocellular medullary sinuses of lymph nodes", "setting": "[1]", "result": "significantly more hypocellular sinuses were present in the control group and the O2 group than in the N2 and Air groups; also recorded: significant differences in sinus cellularity"},
      {"measurement": "lymph node architecture", "setting": "[1]", "result": "improved lymph node architecture"},
      {"measurement": "lymph node architecture", "setting": "[1]; [3]", "result": "preserved"},
      {"measurement": "spleen size", "setting": "[1]", "result": "smaller by about one third"},
      {"measurement": "lymph node size", "setting": "[1]", "result": "smaller"},
      {"measurement": "lymph node size", "setting": "[1]; listed as hyperbaric N2", "result": "significantly attenuated the lymphadenopathy"},
      {"measurement": "lymph node size", "setting": "[1]; listed as nitrogen", "result": "significant reduction"},
      {"measurement": "number of nodes with paracortical expansion", "setting": "[1]; lymph node histology", "result": "reduction"},
      {"measurement": "number of nodes with secondary follicles", "setting": "[1]; lymph node histology", "result": "reduction"},
      {"measurement": "number of sinuses with histiocytes", "setting": "[1]; lymph node histology", "result": "increase"},
      {"measurement": "post-treatment CD4 count (FACS)", "setting": "[1]", "result": "increased and were significantly higher than post-treatment CD4 count in control animals"},
      {"measurement": "post-treatment CD4 count (FACS)", "setting": "[1]; listed as hyperbaric N2", "result": "improved CD4 counts"},
      {"measurement": "physical condition / grooming", "setting": "[1]", "result": "better grooming"},
      {"measurement": "physical condition / grooming", "setting": "[1]; [3]", "result": "improved"},
      {"measurement": "physical condition / grooming", "setting": "[1]; listed as nitrogen", "result": "appeared physically more healthy; also recorded: improved physical condition"}
    ]},
    {"smiles": "O=O", "note": "[O2, oxygen, reference compound]", "values": [
      {"measurement": "mice that died during the treatment period", "setting": "[1]", "result": "Two"},
      {"measurement": "mice that died during the treatment period", "setting": "[1]; listed as oxygen", "result": "two"},
      {"measurement": "survival rate at 21 days", "setting": "[1]", "result": 83, "unit": "%"},
      {"measurement": "post-treatment CD4/CD8 ratio", "setting": "[1]", "result": "significantly lower"},
      {"measurement": "post-treatment CD4/CD8 ratio", "setting": "[1]; listed as hyperbaric oxygen", "result": "significantly decreased"},
      {"measurement": "post-treatment CD4/CD8 ratio", "setting": "[1]; listed as oxygen", "result": "significantly lower"},
      {"measurement": "overall effect relative to control conditions", "setting": "[1]; listed as Oxygen", "result": "significant negative effect"},
      {"measurement": "overall effect relative to control conditions", "setting": "[1]; listed as hyperbaric oxygen", "result": "no beneficial effect"},
      {"measurement": "overall effect relative to control conditions", "setting": "[1]; listed as oxygen", "result": "fared worse than the control group"},
      {"measurement": "hypocellular medullary sinuses of lymph nodes", "setting": "[1]", "result": "significantly more hypocellular sinuses"},
      {"measurement": "spleen size", "setting": "[1]", "result": "much bigger"},
      {"measurement": "lymph node size", "setting": "[1]", "result": "much bigger"},
      {"measurement": "post-treatment CD4 count (FACS)", "setting": "[1]; listed as hyperbaric oxygen", "result": "significantly decreased"}
    ]},
    {"smiles": "[N-]=[N+]=O", "note": "[nitrous oxide]", "values": [
      {"measurement": "anesthetic effect", "setting": "[2]; 90% N2O and 10% O2 at atmospheric pressure (760 mmHg)", "result": "many subjects do not even lose consciousness"},
      {"measurement": "anesthetic effect", "setting": "[2]; 1520 mmHg or 2 atmospheres absolute (1368 mmHg N2O+125 mmHg oxygen)", "result": "deep anesthesia"}
    ]}
  ]
}
